Assay in all cases: ≥ marks a high value that may be exact or a test limit, other limits are often not marked, values filed in µg/mL are converted to µM
Assay [1] concerns Escherichia coli ATCC 25922.
The subject of assay [2] is Klebsiella pneumoniae ATCC 700603.
The subject of assay [3] is Pseudomonas aeruginosa ATCC 27853.
The test system of assay [4] is Staphylococcus aureus ATCC 29213.
Assay [5] relates to Staphylococcus aureus ATCC 33591.
The test system of assay [6] is Staphylococcus aureus ATCC 700699.
Assay [7] has as its system Candida glabrata 090902.
Assay [8] relates to Enterococcus faecalis 981.
For assay [9], the system named is Nocardia asteroides 201118.
Assay [10] relates to Staphylococcus aureus ATCC 25923.
Assay [11] deals with Bacillus subtilis ATCC 6633.
In assay [12] the test system is Escherichia coli ATCC 10536.
In assay [13] the test system is Escherichia coli DH5alpha.
Assay [14] relates to Staphylococcus aureus ATCC 9144.
Assay [15] has as its system Candida albicans ATCC 90028.
The subject of assay [16] is Candida albicans SC5314.
Assay [17] has as its system Candida krusei ATCC 6258.
For assay [18], the system named is Candida parapsilosis ATCC 22019.

Among the data in DBAASP are MIC values, retold here.

One may read the MIC as the smallest concentration in the dilution series that meets the test's criterion for growth inhibition. Low readings indicate a more susceptible organism, high ones a less susceptible organism.

In brackets after ≈: the same amount, converted by molar mass. Several values for one entry are separate records, joined by “and”; a condition that tells them apart may be missing. Equal values may be shown once.

In the case of `CC[C@H](C)[C@H](NC(=O)[C@H](CC(=O)O)NC(=O)[C@H](CCCCN)NC(=O)[C@H](C)NC(=O)[C@H](C)NC(=O)CNC(=O)[C@H](CCCCN)NC(=O)[C@H](CC(C)C)NC(=O)[C@@H](NC(=O)[C@H](CC(=O)O)NC(=O)[C@@H](NC(=O)[C@@H](NC(=O)[C@H](C)N)C(C)C)C(C)C)[C@@H](C)CC)C(=O)N[C@@H](C)C(=O)NCC(=O)N[C@@H](Cc1cnc[nH]1)C(=O)N[C@@H](CC(C)C)C(=O)N[C@@H](C)C(=O)N[C@@H](CO)C(=O)N[C@@H](CCCCN)C(=O)N[C@H](C(=O)N[C@@H](CCSC)C(=O)N[C@@H](CC(N)=O)C(=O)N[C@@H](CCCCN)C(=O)N[C@@H](CC(C)C)C(N)=O)C(C)C` [AVVDILKGAAKDIAGHLASKVMNKL], the MIC in assay [1] was > 100 µM; in assay [2], > 100 µM; in [3], > 100 µM; in assay [4], > 100 µM; in assay [5], ≥ 100 µM; in assay [6] it was ≥ 100 µM.
For `CC(C)C[C@H](NC(=O)[C@H](CC(C)C)NC(=O)CNC(=O)[C@H](CO)NC(=O)[C@H](CC(C)C)NC(=O)[C@H](CC(C)C)NC(=O)[C@H](CCCCN)NC(=O)CNC(=O)[C@@H](NC(=O)[C@H](Cc1ccccc1)NC(=O)[C@@H]1CCCN1C(=O)[C@H](CC(C)C)NC(=O)[C@@H](N)Cc1ccccc1)C(C)C)C(N)=O` [FLPFVGKLLSGLL], the MIC in assay [7] was ≥ 100 µM; in assay [8] it was 25 µM (≈ 35.1 µg/mL); in [9], 12.5 µM (≈ 17.5 µg/mL); in assay [10] it was 12.5 µM (≈ 17.5 µg/mL).
For the compound `CC[C@H](C)[C@H](NC(=O)[C@H](CCCN=C(N)N)NC(=O)[C@@H](NC(=O)[C@@H](NC(=O)[C@@H]1CCCN1C(=O)[C@@H](NC(=O)[C@@H](NC(=O)[C@@H](NC(=O)[C@@H]1CCCN1C(=O)CNC(=O)[C@H](Cc1ccc(O)cc1)NC(=O)[C@H](CCCCN)NC(=O)[C@H](CCCCN)NC(=O)[C@H](Cc1c[nH]c2ccccc12)NC(=O)[C@H](C)NC(=O)[C@H](CCCN=C(N)N)NC(=O)[C@H](CC(C)C)NC(=O)[C@H](C)NC(=O)[C@H](CCCCN)NC(=O)[C@H](CCCN=C(N)N)NC(=O)CNC(=O)[C@H](CC(C)C)NC(=O)[C@H](CO)NC(=O)[C@H](CCCN=C(N)N)NC(=O)[C@H](CC(C)C)NC(=O)CNC(=O)CN)[C@@H](C)CC)[C@@H](C)CC)C(C)C)[C@@H](C)CC)[C@@H](C)CC)C(N)=O` [GGLRSLGRKALRAWKKYGPIIVPIIRI], the MIC in assay [11] stood at 1.5 µM (≈ 4.55 µg/mL); in [12] it was 2.3 µM (≈ 6.97 µg/mL); in [13] it was 2.6 µM (≈ 7.88 µg/mL); in assay [14], 3.2 µM (≈ 9.7 µg/mL).
Take `CC[C@H](C)[C@H](NC(=O)[C@@H](NC(=O)[C@@H]1CCCN1C(=O)[C@H](CO)NC(=O)[C@H](CC(C)C)NC(=O)[C@H](CCCCN)NC(=O)[C@H](CCCCN)NC(=O)[C@H](Cc1ccccc1)NC(=O)[C@H](CC(C)C)NC(=O)[C@H](CCCCN)NC(=O)[C@H](CCCCN)NC(=O)[C@H](C)NC(=O)[C@H](CCCCN)NC(=O)[C@H](CCCCN)NC(=O)[C@H](CCCN=C(N)N)NC(=O)[C@H](Cc1ccccc1)NC(=O)[C@H](CCCN=C(N)N)NC(=O)[C@H](CCCCN)NC(=O)[C@H](C)NC(=O)[C@H](CCCN=C(N)N)NC(=O)CN)C(C)C)C(=O)N1CCC[C@H]1C(=O)N[C@@H](CC(C)C)C(=O)N[C@@H](CC(C)C)C(=O)N[C@@H](Cc1cnc[nH]1)C(=O)N[C@@H](CC(C)C)C(N)=O` [GRAKRFRKKAKKLFKKLSPVIPLLHL]: the minimal inhibitory concentration (MIC) is 2.9 µM and 7.3 µM in assay [12]; 2.9 µM (≈ 8.91 µg/mL) in assay [13]; 2.7 µM (≈ 8.3 µg/mL) in [14].
Turning to `CC[C@H](C)[C@H](NC(=O)[C@@H](NC(=O)[C@@H]1CCCN1C(=O)[C@H](CO)NC(=O)[C@H](CC(C)C)NC(=O)[C@H](CCCCN)NC(=O)[C@H](CCCCN)NC(=O)[C@H](Cc1ccccc1)NC(=O)[C@H](CC(C)C)NC(=O)[C@H](CCCCN)NC(=O)[C@H](CCCCN)NC(=O)[C@H](C)NC(=O)[C@H](CCCCN)NC(=O)[C@H](CCCCN)NC(=O)[C@H](CCCN=C(N)N)NC(=O)[C@H](Cc1ccccc1)NC(=O)[C@H](CCCN=C(N)N)NC(=O)[C@H](CCCCN)NC(=O)[C@H](Cc1ccccc1)NC(=O)[C@H](CCCN=C(N)N)NC(=O)CN)C(C)C)C(=O)N1CCC[C@H]1C(=O)N[C@@H](CC(C)C)C(=O)N[C@@H](CC(C)C)C(=O)N[C@@H](Cc1cnc[nH]1)C(=O)N[C@@H](CC(C)C)C(N)=O` [GRFKRFRKKAKKLFKKLSPVIPLLHL], the minimal inhibitory concentration (MIC) in assay [12] was 3.2 µM and 7.4 µM; in assay [13], 2.9 µM (≈ 9.13 µg/mL); in assay [14], 2.8 µM (≈ 8.82 µg/mL).
With `CC[C@H](C)[C@H](NC(=O)[C@@H](NC(=O)CN)C(C)C)C(=O)N[C@@H](CCCCN)C(=O)N[C@@H](C)C(=O)N[C@@H](C)C(=O)N[C@@H](CCCCN)C(=O)N[C@@H](CCCCN)C(=O)N[C@H](C(=O)N[C@H](C(=O)N[C@@H](CCCCN)C(=O)N[C@H](C(=O)N[C@@H](CC(C)C)C(=O)N[C@@H](CCCCN)C(=O)N[C@@H](CCCCN)C(=O)N[C@@H](CC(C)C)C(=O)N[C@@H](Cc1ccccc1)C(N)=O)C(C)C)C(C)C)C(C)C` [GVIKAAKKVVKVLKKLF], the minimal inhibitory concentration (MIC) in assay [15] was ≥ 34.2 µM; in assay [16], 17.1 µM (≈ 32 µg/mL); in assay [17] it was 17.1 µM (≈ 32 µg/mL); in assay [18], 8.56 µM (≈ 16 µg/mL).
As to `CC[C@H](C)[C@H](NC(=O)[C@@H](NC(=O)CN)C(C)C)C(=O)N[C@@H](CCCCN)C(=O)N[C@@H](C)C(=O)N[C@@H](C)C(=O)N[C@@H](CCCCN)C(=O)N[C@@H](CCCCN)C(=O)N[C@H](C(=O)N[C@H](C(=O)N[C@@H](CCCCN)C(=O)N[C@H](C(=O)N[C@@H](CC(C)C)C(=O)N[C@@H](CCCCN)C(=O)N[C@@H](CC(N)=O)C(=O)N[C@@H](CC(C)C)C(=O)N[C@@H](Cc1ccccc1)C(N)=O)C(C)C)C(C)C)C(C)C` [GVIKAAKKVVKVLKNLF], the MIC in assay [15] is ≥ 34.5 µM; in [16] it was 17.2 µM (≈ 32 µg/mL); in assay [17], 17.2 µM (≈ 32 µg/mL); in assay [18], 17.2 µM (≈ 32 µg/mL).
As to `CC[C@H](C)[C@H](NC(=O)[C@H](C)NC(=O)[C@H](CCCCN)NC(=O)[C@H](C)NC(=O)[C@H](C)NC(=O)CNC(=O)[C@H](CCCCN)NC(=O)[C@H](CC(C)C)NC(=O)[C@@H](NC(=O)[C@H](CC(=O)O)NC(=O)[C@@H](NC(=O)[C@@H](NC(=O)CN)C(C)C)C(C)C)[C@@H](C)CC)C(=O)N[C@@H](C)C(=O)NCC(=O)N[C@@H](Cc1cnc[nH]1)C(=O)N[C@@H](CC(C)C)C(=O)N[C@@H](C)C(=O)N[C@@H](CO)C(=O)N[C@@H](CCCCN)C(=O)N[C@H](C(=O)N[C@@H](CCSC)C(=O)N[C@@H](CC(N)=O)C(=O)N[C@@H](CCCCN)C(=O)N[C@@H](CC(C)C)C(N)=O)C(C)C` [GVVDILKGAAKAIAGHLASKVMNKL], the MIC is 3.12 µM (≈ 7.81 µg/mL) in [1]; 25 µM (≈ 62.6 µg/mL) in [2]; 50 µM (≈ 125 µg/mL) in [3]; 100 µM (≈ 250 µg/mL) in assay [4]; 25 µM (≈ 62.6 µg/mL) in assay [5]; ≥ 50 µM in assay [6].
In the case of `CC[C@H](C)[C@H](NC(=O)[C@H](CC(=O)O)NC(=O)[C@H](CCCCN)NC(=O)[C@H](C)NC(=O)[C@H](C)NC(=O)CNC(=O)[C@H](CCCCN)NC(=O)[C@H](CC(C)C)NC(=O)[C@@H](NC(=O)[C@H](CC(=O)O)NC(=O)[C@@H](NC(=O)[C@@H](NC(=O)CN)C(C)C)C(C)C)[C@@H](C)CC)C(=O)N[C@@H](C)C(=O)NCC(=O)N[C@@H](Cc1cnc[nH]1)C(=O)N[C@@H](CC(C)C)C(=O)N[C@@H](C)C(=O)N[C@@H](C)C(=O)N[C@@H](CCCCN)C(=O)N[C@H](C(=O)N[C@@H](CCSC)C(=O)N[C@@H](CC(N)=O)C(=O)N[C@@H](CCCCN)C(=O)N[C@@H](CC(C)C)C(N)=O)C(C)C` [GVVDILKGAAKDIAGHLAAKVMNKL], the MIC in assay [1] was 25 µM (≈ 63.3 µg/mL); in assay [2], 100 µM (≈ 253 µg/mL); in [3], 100 µM (≈ 253 µg/mL); in assay [4] it was > 100 µM; in assay [5], ≥ 100 µM; in assay [6], ≥ 100 µM.
